Source: patent US10000787B2, “Methods for diagnosing bacterial infections” (STC.UNM, priority 2012, dated 2018)

Molecular target: T1, pHPA decarboxylase (Clostridioides difficile, UniProt Q84F16)
T1 construct: Isolated cell free extract of C. difficile; endogenous in cells; host or cells: C. difficile cell-free extract
Assay: estimated ^13CO2 production from labeled substrate by pHPA decarboxylase in a C. difficile infection
Type: in vivo
Conditions: infection in which 10 mg of bacterial protein is present; worked out from 12 mU per mg of protein pHPA decarboxylase in isolated cell free extract of C. difficile
Procedure: The compositions of the invention can also be administered intravenously. Isolated cell free extract of C. difficile contains 12 mU per mg of protein of the activating enzyme pHPA decarboxylase. This correlates to the production of 2.7 mL of ^13CO2 per minute in an infection in which 10 mg of bacterial protein is present when a patient is treated with a compound of the invention, for example, ^13C-hydroxyphenylacetate. Oftentimes, a patient is infected with much more than 10 mg of bacterial protein with a C. difficile infection.
Assuming 15 liters of air is respired per minute, and with 4% exhaled CO2, a patient will exhale about 600 ml of CO2 per minute, of which approximately 6.6 mLs will be ^13CO2. […] Thus, efficient delivery of isotopically-labeled compound is important. Preferably, an intravenous dosage form is administered to the patient, leading to rapid increases in intestinal levels, and allowing breath testing from 10 to 120 minutes after dosage. Such dosage forms are sterile and particle-free. Preparation methods for such dosage forms are known in the art.

T1 sequence (Q84F15 whole entry): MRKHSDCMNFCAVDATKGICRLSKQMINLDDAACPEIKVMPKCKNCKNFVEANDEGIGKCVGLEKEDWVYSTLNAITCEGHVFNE
T1 sequence (Q84F16 whole entry): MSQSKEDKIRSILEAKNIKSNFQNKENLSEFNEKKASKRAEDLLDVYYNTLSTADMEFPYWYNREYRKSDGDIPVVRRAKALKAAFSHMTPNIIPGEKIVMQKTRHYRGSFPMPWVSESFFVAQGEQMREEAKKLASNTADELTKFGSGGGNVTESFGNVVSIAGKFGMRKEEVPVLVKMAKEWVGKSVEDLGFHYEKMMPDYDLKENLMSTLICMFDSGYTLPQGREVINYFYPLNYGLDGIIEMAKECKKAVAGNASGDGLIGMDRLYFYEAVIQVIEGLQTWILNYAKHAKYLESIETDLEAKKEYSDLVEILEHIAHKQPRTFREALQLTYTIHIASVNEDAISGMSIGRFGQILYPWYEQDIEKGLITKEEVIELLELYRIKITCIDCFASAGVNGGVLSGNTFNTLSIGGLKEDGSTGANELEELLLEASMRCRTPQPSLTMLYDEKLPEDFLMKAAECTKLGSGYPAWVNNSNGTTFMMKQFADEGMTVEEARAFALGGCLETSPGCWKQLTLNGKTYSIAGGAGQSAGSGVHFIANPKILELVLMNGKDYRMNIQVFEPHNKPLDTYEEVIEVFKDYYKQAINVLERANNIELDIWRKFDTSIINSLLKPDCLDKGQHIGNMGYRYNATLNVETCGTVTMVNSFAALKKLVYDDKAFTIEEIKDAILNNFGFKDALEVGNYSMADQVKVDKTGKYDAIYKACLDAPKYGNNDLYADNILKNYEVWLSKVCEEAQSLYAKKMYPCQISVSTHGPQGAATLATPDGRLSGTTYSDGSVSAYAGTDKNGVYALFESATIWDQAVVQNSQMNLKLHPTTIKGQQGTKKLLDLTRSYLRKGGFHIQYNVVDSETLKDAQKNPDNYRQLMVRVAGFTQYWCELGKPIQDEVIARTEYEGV

^13C-hydroxyphenylacetate
production of ^13CO2: 2.7 mL per minute
